From article PMC11053168, “Agonist-selective activation of individual G-proteins by muscarinic receptors” (Scientific Reports, 2024)

Molecular target: T1, M2 receptor (Homo sapiens, UniProt P08172)
T1 sequence (P08172 1-466): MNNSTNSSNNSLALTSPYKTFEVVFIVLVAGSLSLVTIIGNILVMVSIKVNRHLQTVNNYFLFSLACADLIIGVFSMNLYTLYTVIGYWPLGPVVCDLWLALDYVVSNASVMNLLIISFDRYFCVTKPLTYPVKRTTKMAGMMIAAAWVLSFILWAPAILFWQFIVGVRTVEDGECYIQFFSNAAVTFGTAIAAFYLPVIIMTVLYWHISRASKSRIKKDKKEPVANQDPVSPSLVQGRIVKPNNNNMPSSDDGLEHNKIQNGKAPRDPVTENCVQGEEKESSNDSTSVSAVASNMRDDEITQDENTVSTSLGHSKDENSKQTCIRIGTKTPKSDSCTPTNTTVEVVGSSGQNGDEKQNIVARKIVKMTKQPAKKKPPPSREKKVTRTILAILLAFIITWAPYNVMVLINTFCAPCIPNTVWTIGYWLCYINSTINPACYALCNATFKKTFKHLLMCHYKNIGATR
Assay: Agonist-stimulated GTPγ[35S] binding to Sf9 membranes expressing M2 receptor and individual Gαi/o
Type: biochemical
Set-up: host or cells: Sf9 insect cells, baculovirus (pFastBac1 / Bac-to-Bac); membranes
Details: for Activation of individual Gi/o Gα types: M2 with GαoA, GαoB, Gαi1, Gαi2, Gαi3; for Operational efficacy lower than the efficacy of CBC: at GαoA and GαoB; for Signalling bias among Gαi/o relative to CBC: RAi / bias factor, CBC reference
Method: Baculoviral stocks for expression of M2 receptor and individual Gα-subunits of Gi/o G-proteins (GαoA, GαoB, Gαi1, Gαi2, Gαi3) in SF9 cells were generated according to Bac-to-Bac® baculovirus expression system—user guide (https://assets.thermofisher.com/TFS-Assets/LSG/manuals/MAN0000414_BactoBacExpressionSystem_UG.pdf). […] After 96 h at 27 °C, baculoviral viral particles released into the medium were harvested. After centrifugation at 500×g for 10 min to remove detached cells and cell debris, baculoviral stock P0 was ready for amplification. Suspension of Sf9 cells at density 2 × 10^6 cells per ml was infected by baculoviral stock P0 in ratio 1:1000 and after 72 h of growth (in a shaking incubator at 135 rpm and 27 °C) the amplified baculoviral stock P1 was harvested. The cell suspension was centrifugated at 500×g for 10 min to remove cells and cell debris and the supernatant containing a high level of baculoviral particles P1 was collected. FBS to the concentration of 0.5% was added and the stock was stored at 4 °C, protected from light for up to 6 months. For the quantification of baculoviral particles, a plaque assay was used.
Cells were grown in suspension culture in 250 ml Erlenmeyer flasks in Sf-900™ III serum-free medium in an aerated shaking incubator at 27 °C and 135 rpm. Cells were maintained at the density of 1–4 × 10^6 cells per ml. Sf9 cells at the density 2 × 10^6 were co-infected with baculoviral stock for the M2 receptor and a particular Gi/o Gα in the ratio (1:10). […] Infected cells were harvested by centrifugation 1000×g for 10 min. Cell pellets were kept at − 80 °C.
Membranes were prepared as described previously by Randakova et al.[33]. Cells harvested from twenty 100 mm petri dishes (CHO) or 30 ml of cell suspension (Sf9) were suspended in 20 ml of ice-cold incubation medium (100 mM NaCl, 20 mM Na-HEPES, 10 mM MgCl2, pH 7.4) supplemented with 10 mM EDTA and homogenized on ice by two 30‐s strokes using a Polytron homogenizer (Ultra-Turrax; Janke & Kunkel GmbH & Co. KG, IKA-Labortechnik, Staufen, Germany) with a 30 s pause between strokes. Cell homogenates were centrifuged for 5 min at 1000×g to remove whole cells and cell nuclei. The resulting supernatants were centrifuged for 30 min at 30,000×g. Pellets were suspended in a fresh incubation medium, incubated on ice for 30 min, and centrifuged again. The resulting membrane pellets were kept at − 80 °C until assayed within 10 weeks.
Agonist stimulated GTPγ[^35S]binding to membranes from Sf9 cells expressing the M2 receptors in a combination with α-subunit of given Gi/o type (GαoA, GαoB, Gαi1, Gαi2, Gαi3) was measured in 96-well plates in a final volume of 200 µl of incubation medium described above containing 500 pM of GTPγ[^35S] […] Nonspecific binding was determined in the presence of 1 µM nonlabelled GTPγS. Incubations were terminated and processed as described above. Parameters of functional response were calculated according to Eq. (3) after subtraction of non-specific binding.
The basal value of GTPγ[^35S] binding was determined in the absence of the agonist. After subtraction of non-specific binding determined in the presence of 10 μM nonlabelled GTPγS, GTPγ[^35S]binding was divided by the basal value and expressed as folds over basal. […] Then Eq. (3) was fitted to the data using GraphPad. Obtained EMAX and EC50 values were used to calculate RAi values using Eq. (7). To determine τ and KA of the functional responses system EMAX was determined as described earlier. Basal values were subtracted and functional responses were expressed as fractions of system EMAX. […] Obtained τ and KA values were used to calculate the bias factor according to Eq. (8), see below, for each experiment.
Equation (4) was fitted to data by the two-step procedure described earlier[61]

C[N+](C)(C)CCOC(N)=O [CBC, carbachol, reference compound]
GTPγ[35S] binding signal at Gi1 as % of GoA (M2 + Gi1 vs M2 + GoA): 62%
Activation of individual Gi/o Gα types: activated all Gi/o types

c1csc(C[N+]23CCC(CC2)CC3)c1 [JB-8A]
Activation of individual Gi/o Gα types: activated GαoA and GαoB only
Operational efficacy lower than the efficacy of CBC: 20–30 ×

C[N+]1(Cc2cccs2)CCOCC1 [JB-12-2]
Signalling bias among Gαi/o relative to CBC (M2): biased to GαoA
Bias GoA vs GoB (M2, relative to carbachol): more than 5 fold
Activation of individual Gi/o Gα types: activated all Gi/o Gα

COC(=O)C1=CCCN(Cc2cccs2)C1 [JB-13-1]
Signalling bias among Gαi/o relative to CBC (M2): biased to Gαi3
Activation of individual Gi/o Gα types: activated all Gi/o Gα

C[N+]1(Cc2cccs2)CC=CCC1 (centres unmarked) [JR-6, 1-methyl-1-[(thiophen-2-yl)methyl]-1,2,3,6-tetra hydropyridin-1-ium]
GTPγ[35S] binding signal (M2 + Gi1): no signal
GTPγ[35S] binding signal relative to the detection limit (M2 + GoA): more than 20 fold
Signalling bias among Gαi/o relative to CBC (M2): absolute selectivity to Gαo with a preference for GαoB
Activation of individual Gi/o Gα types: activated GαoA and GαoB only
Operational efficacy lower than the efficacy of CBC: approx 10 ×

C[N+]1(Cc2ccc(Cl)s2)CC=CCC1 (centres unmarked) [PN-152, 1-[(5-chlorothiophen-2-yl)methyl]-1-methyl-1,2,3,6-tetrahydropyridin-1-ium]
Signalling bias among Gαi/o relative to CBC (M2): absolute selectivity to Gαo with a preference for GαoB
Activation of individual Gi/o Gα types: activated GαoA and GαoB only
Operational efficacy lower than the efficacy of CBC: ~15 ×
